Results reported in patent US20240132910A1, “USE OF HISTIDINE RICH PEPTIDES AS A TRANSFECTION REAGENT FOR rAAV AND rBV PRODUCTION” (BioMarin Pharmaceutical Inc., priority 2021, published 2024).
Read-outs that look alike come from different tables or passages of the source. Ends that are not written are not given here.

Tests used:
Sf9 cells [1] = assay: AAV5 capsids from Sf9 cells infected with the rBVs, ddPCR; assay type: cell-based, Spodoptera frugiperda; details: rBVs from transfected Sf9 cells, FIG. 19
Method: The different rBVs were collected and used to further infect naive Sf9 cells to generate AAV5 capsids, where the rBVs have nucleotide sequences for generating AAV5 capsids. The titers were determined using ddPCR. […] The AAV5 capsids produced using LAH4-L1-F4 had concentrations of the VP1 capsid protein and ratios of capsid to vector genomes that were the same as AAV5 capsids produced using the control transfection reagent.

Sf9 cells [2] = assay: rBV titers from bacmid-transfected Sf9 cells; assay type: cell-based, Spodoptera frugiperda; details: FIG. 18
Method: The titer of the rBV can be determined using a foci/viral plaque assay. This assay first includes the step of infecting cells with serial dilutions of a solution containing rBV. After infection occurs for a predetermined time, the rBV is removed from the cultures and the cells are incubated for a pre-determined time. After the pre-determined time has elapsed, a plaquing media (e.g., containing agarose) is added to the cultures and allowed to harden. The cells are allowed to further incubate for a pre-determined time and the number of plaques are counted after the pre-determined time. The titer is calculated using the following formula: Titer (plaque forming units/mL)=number of plaques×dilution factor×(1/(mL of inoculum/well)
AAV5 capsids were also produced in Sf9 cells. To produce the AAV5 capsids, Sf9 cells were transfected with bacmids having nucleotide sequences for generating AAV5 capsids or providing an AAV genome vector using the control transfection reagent and different HRPs. […] In culture, the rBVs generated from the initial bacmid transfection subsequently infect other Sf9 cells that in turn generated more rBVs.

[3] = Viability of transfected HEK293 cells (Trypan Blue exclusion), AAV9 production in Ambr15; assay type: cell-based; details: human, read-out: average cell viability
Method: The cell viabilities were quantified using an automated cell counter and Trypan Blue exclusion.
In Ambr15 minibioreactors (15 mL volume), AAV9 capsids were produced in HEK293 cells transfected with plasmids for producing AAV9 capsids and providing an AAV genome vector containing an GFP expression cassette using different complexation volumes of the LAH4 peptide. Prior to transfection, the plasmids were mixed with a concentration of the LAH4 peptide and incubated for 10 minutes and 60 minutes. The LAH4/plasmids mixtures had volumes that were 1% and 10% of the HEK293 cell culture volume. The titers were determined using ddPCR and GFP intensity was measured by attune flow cytometer.

[4] = Stability of DNA:transfection reagent complexes before transfection
Method: The LAH4 peptide was allowed to incubate with the plasmids for more than 1 hour for large scale (more than or equal 100 L) transient transfections since this incubation time allowed for improved stability of the transfection complexes such that the processes were robust and reproducible. It was discovered that LAH4: DNA complexes are stable at least for 1 hour. In a follow up study, the stability of LAH:DNA complexes are evaluated for up to 1 week when stored at 2-8° C. and/or room temperature and with or without exposure to ambient light.
Transfection: LAH4 solution from the same batch is kept at −20° C. in single use aliquots. LAH4 is thawed at RT and mixed with plasmid DNA containing GFP reporter gene. DNA:LAH4 complexes are kept in closed caps tubes to prevent evaporation at either room temperature or 2-8° C. for indicated periods of time before transfection.
Stability of LAH4:DNA complexes: Biophysical characterization of LAH4:DNA complexes is performed. Methods can include size and charge measurements.

in vitro = in vitro ADME; details: human, cells or culture medium
Method: Clearance of the ancillary materials such as transfection reagent during bioprocessing is emphasized. We hypothesized that LAH4 is largely degraded by cellular proteases after transfection process is completed. […] Different concentrations of the LAH4 peptide were added to cell culture volumes of 3 L and 100 L (i.e., bioreactors). At 4 hours post transfection, the LAH4 peptide concentration was reduced by ˜45% to ˜85% relative to initial LAH4 peptide concentration. At 24 hours post transfection, the LAH4 peptide concentration was reduced by ˜83% to ˜97% relative to initial LAH4 peptide concentration. At 48 hours post transfection, the LAH4 peptide concentration was reduced by ˜93% to ˜99% relative to initial LAH4 peptide concentration. At 72 hours post transfection, the LAH4 peptide concentration was reduced by ˜96% to ˜99% relative to initial LAH4 concentration.
Cell culturing: Suspension HEK293 cells are cultured according to the manufacturer's instructions in the provided cell culture media. For small scale transfection study HEK293 cells are seeded in the range of at a predetermined cell density in 125 ml Erlenmeyer shake flasks on the day of transfection.
LAH4 detection in cells: Samples are collected at different time points after transfection and analyzed using LC/MS assay.

KKALLAHFFHLLALLALHFFHALKKA (Synthetic LAH4-L1-F4 peptide)
AAV5 capsid titers versus control reagent (Sf9 cells [1]): comparable | rBV titers versus control reagent (Sf9 cells [2]): comparable

KKALLALALHHLAHLAHHLALALKKA (Synthetic LAH5 peptide)
rBV titers versus control reagent (Sf9 cells [2]): comparable

KKALLALALHHLAHLALHLALALKKA [LAH4]
viability ([3]; Ambr15, 1% complexation volume, FIG. 10D): > 75% | viability ([3]; Ambr15, 10% complexation volume, FIG. 10D): ~72.5% | viability ([3]; Ambr15, 10 minute complexation time, FIG. 10H): ~72.5% | viability ([3]; Ambr15, 60 minute complexation time, FIG. 10H): > 75% | stability of LAH4:DNA complexes [4]: ≥ 1 h | metabolised at 72 h (in vitro): > 95%

polyethylenimine [PEI, reference compound]
stability when mixed with plasmids and incubated for extended periods of time [4]: does not remain stable
